In patent US11406614B2, “Composition comprising EPA and DHA for an enhanced efficacy of anticancer agents” (Fresenius Kabi Deutschland GmbH, priority 2016, dated 2022):

Test system: human colon adenocarcinoma cell line LS174T
Assay: Subcutaneous LS174T xenograft model, tumor growth inhibition
Parameters: species or system BALB/c nude mice
Conditions: mouse, in vivo
Procedure: Example 2 was repeated with the anticancer agent fluorouracil (5-FU) and utilizing a different xen-ograft model involving the human colon adenocarcinoma cell line LS174T.
The suboptimal dose of 5-FU was determined with 75 mg/kg. The anticancer agent was intraperitoneally administered at the suboptimal dose once a week (days 11, 18 and 25 after inoculation). The emulsions were administered intravenously five times a week (Mo-Fr) at a dose of 2 ml/kg.
The results were statistically analyzed.

O=c1[nH]cc(F)c(=O)[nH]1 [Composition 5-FU, fluorouracil]
Suboptimal dose: 75 mg/kg
